# Measurements reported in patent US20040223918A1, “Aerosolization of cromolyn sodium using a capillary aerosol generator” (Chrysalis Technologies Incorporated, priority 2003, published 2004).
# Assays:
# [1] = Solubility of cromolyn sodium in ethanol and PG/EtOH mixtures; assay type: physicochemical; conditions: Table 4 PG/EtOH mixtures, 0.25% Brij30 and 0.25% lecithin
# Source text: FIG. 7 is a graph illustrating the solubility of cromolyn sodium in various propylene glycol/ethanol (PG/EtOH) mixtures, with 0.25% Brij30 and 0.25% lecithin. […] When formulated with 0.25% w/v Brij 30 and 0.25% lecithin, cromolyn sodium suspension formulations remained visually stable over a period of one to two weeks. There was no significant change in the particle size distribution of the suspended particles up to three days of standing at ambient condition. The addition of PG was primarily to prevent capillary clogging. The amount of PG required in the formulation was dependent on the API concentration.
# [2] = cited from earlier work
smiles,measurement,setting,value
O=C(O)c1cc(=O)c2c(OCC(O)COc3cccc4oc(C(=O)O)cc(=O)c34)cccc2o1 [cromolyn sodium],solubility in PG/EtOH mixtures,[1],almost insoluble
same,solubility in ethanol,[2],virtually insoluble
